Measured values reported in PubChem BioAssay AID330 (DTP/NCI, 2004).
Where “and” joins values, the source holds several entries; their conditions need not be identical. Equal values may be shown once. Inconclusive results and toxic doses are left out. The calls were made as follows: active = survival T/C of 150% or more; inactive = T/C below 125% in these data.

System: P388 leukemia ip, CD2F1 mice, survival T/C
Experiment: NCI In Vivo Anticancer Drug Screen. Data for tumor model P388 Leukemia (intraperitoneal) in CD2F1 (CDF1) mice
Conditions: endpoint: median survival time, higher = longer survival
Procedure, shortened: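 Mice carrying the transplanted tumor received test compound or vehicle. Survival was recorded in each group, and the value is the treated-group measurement divided by that of the vehicle-treated control group.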

[1] = dose: 50.0 mg/kg/injection, schedule: Q01DX009 (ip), vehicle: saline with Tween-80
[2] = dose: 100.0 mg/kg/injection, schedule: Q01DX009 (ip), vehicle: saline with Tween-80
[3] = dose: 200.0 mg/kg/injection, schedule: Q01DX009 (ip), vehicle: saline with Tween-80
[4] = dose: 50.0 mg/kg/injection, schedule: Q01DX009 (ip), vehicle: saline
[5] = dose: 100.0 mg/kg/injection, schedule: Q01DX009 (ip), vehicle: saline
[6] = dose: 60.0 mg/kg/injection, schedule: Q01DX005 (ip), vehicle: saline with Tween-80
[7] = dose: 120.0 mg/kg/injection, schedule: Q01DX005 (ip), vehicle: saline with Tween-80
[8] = dose: 25.0 mg/kg/injection, schedule: Q01DX009 (ip), vehicle: other
[9] = dose: 100.0 mg/kg/injection, schedule: Q01DX009 (ip), vehicle: other
[10] = dose: 240.0 mg/kg/injection, schedule: Q01DX005 (ip), vehicle: saline with Tween-80
[11] = dose: 50.0 mg/kg/injection, schedule: Q01DX005 (ip), vehicle: saline with Tween-80
[12] = dose: 100.0 mg/kg/injection, schedule: Q01DX005 (ip), vehicle: saline with Tween-80
[13] = dose: 200.0 mg/kg/injection, schedule: Q01DX005 (ip), vehicle: saline with Tween-80

Measured: T/C

C=CC(C(=C)C(=O)OC)c1ccccc1 (configuration not stated)
inactive: dose: 60.0 mg/kg/injection, schedule: Q01DX005 (ip), vehicle: saline 100 % of control | dose: 120.0 mg/kg/injection, schedule: Q01DX005 (ip), vehicle: saline 109 % of control | dose: 240.0 mg/kg/injection, schedule: Q01DX005 (ip), vehicle: saline 103 % of control

CCN(CC)CCOC(=O)c1ccc(N=C/C=C/C(C#N)=C/NOC)cc1
inactive: [1] 113 % of control | [2] 101 % of control | [3] 103 % of control

COc1ccc(Cl)cc1NC(=O)Oc1ccncc1
inactive: dose: 0.78 mg/kg/injection, schedule: Q01DX009 (ip), vehicle: saline with Tween-80 94 % of control | dose: 1.56 mg/kg/injection, schedule: Q01DX009 (ip), vehicle: saline with Tween-80 88 % of control | dose: 3.12 mg/kg/injection, schedule: Q01DX009 (ip), vehicle: saline with Tween-80 87 % of control and 88 % of control | dose: 6.25 mg/kg/injection, schedule: Q01DX009 (ip), vehicle: saline with Tween-80 86 % of control | dose: 12.5 mg/kg/injection, schedule: Q01DX009 (ip), vehicle: saline with Tween-80 88 % of control | [1] 87 % of control | [2] 101 % of control | [3] 94 % of control

CC(=O)OCC1OC(Oc2ncccn2)C(OC(C)=O)C1OC(C)=O (configuration not stated)
inactive: [4] 98 % of control | dose: 50.0 mg/kg/injection, schedule: Q01DX009 (ip), vehicle: suspension in saline 100 % of control | [5] 103 % of control | dose: 100.0 mg/kg/injection, schedule: Q01DX009 (ip), vehicle: suspension in saline 99 % of control | dose: 200.0 mg/kg/injection, schedule: Q01DX009 (ip), vehicle: saline 100 % of control | dose: 200.0 mg/kg/injection, schedule: Q01DX009 (ip), vehicle: suspension in saline 99 % of control | dose: 400.0 mg/kg/injection, schedule: Q01DX009 (ip), vehicle: saline 99 % of control | dose: 400.0 mg/kg/injection, schedule: Q01DX009 (ip), vehicle: suspension in saline 96 % of control

Cc1nc(SCC(N)=O)nc2sc(SCC(N)=O)nc12
inactive: dose: 100.0 mg/kg/injection, schedule: Q04DX002 (ip), vehicle: suspension in saline 96 % of control | dose: 200.0 mg/kg/injection, schedule: Q04DX002 (ip), vehicle: suspension in saline 99 % of control | dose: 400.0 mg/kg/injection, schedule: Q04DX002 (ip), vehicle: suspension in saline 98 % of control

CS(=O)(=O)CC(=O)c1ccccc1
inactive: dose: 25.0 mg/kg/injection, schedule: Q01DX009 (ip), vehicle: saline with Tween-80 101 % of control and 106 % of control | [1] 97 % of control | [2] 111 % of control and 106 % of control | [3] 103 % of control and 111 % of control

CS/N=N/N=C(\c1ccccc1)N1CCOCC1
inactive: [6] 103 % of control | [7] 97 % of control

Cc1cc(C)n(C(=O)n2nc(C)cc2C)n1
inactive: dose: 50.0 mg/kg/injection, schedule: Q01DX005 (ip), vehicle: saline 100 % of control | dose: 100.0 mg/kg/injection, schedule: Q01DX005 (ip), vehicle: saline 107 % of control | dose: 200.0 mg/kg/injection, schedule: Q01DX005 (ip), vehicle: saline 100 % of control

O=C(Nc1cnns1)Oc1ccccc1
inactive: dose: 12.5 mg/kg/injection, schedule: Q01DX009 (ip), vehicle: other 117 % of control | [8] 92 % of control | dose: 50.0 mg/kg/injection, schedule: Q01DX009 (ip), vehicle: other 93 % of control | [9] 92 % of control | dose: 200.0 mg/kg/injection, schedule: Q01DX009 (ip), vehicle: other 97 % of control

O=[N+]([O-])C1C(O)CSCC1O (configuration not stated)
inactive: dose: 100.0 mg/kg/injection, schedule: Q01DX001 (ip), vehicle: saline with Tween-80 104 % of control | dose: 200.0 mg/kg/injection, schedule: Q01DX001 (ip), vehicle: saline with Tween-80 104 % of control | dose: 400.0 mg/kg/injection, schedule: Q01DX001 (ip), vehicle: saline with Tween-80 107 % of control

CC(C)(C)SCC(NC(=O)OCC1c2ccccc2-c2ccccc21)C(=O)O (configuration not stated)
inactive: dose: 50.0 mg/kg/injection, schedule: Q01DX005 (ip), vehicle: Klucel (hydroxypropylcellulose) (HPC) 100 % of control | dose: 100.0 mg/kg/injection, schedule: Q01DX005 (ip), vehicle: Klucel (hydroxypropylcellulose) (HPC) 100 % of control

CCNC(=O)NS(=O)(=O)c1ccc(Sc2ccc(C)cc2)nc1
inactive: [6] 98 % of control | [7] 101 % of control | [10] 94 % of control

Cc1cc(C)n2ncnc2n1
inactive: dose: 12.5 mg/kg/injection, schedule: Q01DX009 (ip), vehicle: saline 105 % of control | dose: 25.0 mg/kg/injection, schedule: Q01DX009 (ip), vehicle: saline 100 % of control | [4] 100 % of control | [5] 103 % of control

COc1ccc(NC(=O)Nc2ccc(C#N)cc2)cc1
inactive: [6] 101 % of control | [7] 93 % of control | [10] 93 % of control

c1ccc(C(NC2=NCCCCCC2)c2ccco2)cc1 (configuration not stated)
inactive: dose: 7.5 mg/kg/injection, schedule: Q01DX005 (ip), vehicle: saline with Tween-80 99 % of control | dose: 15.0 mg/kg/injection, schedule: Q01DX005 (ip), vehicle: saline with Tween-80 93 % of control | dose: 30.0 mg/kg/injection, schedule: Q01DX005 (ip), vehicle: saline with Tween-80 101 % of control

COc1ccc(OC)c(C(=O)C=C(C(F)(F)F)C(F)(F)F)c1
inactive: [8] 120 % of control | dose: 50.0 mg/kg/injection, schedule: Q04DX003 (ip), vehicle: other 113 % of control | dose: 66.0 mg/kg/injection, schedule: Q04DX003 (ip), vehicle: other 109 % of control | [9] 95 % of control | dose: 100.0 mg/kg/injection, schedule: Q04DX003 (ip), vehicle: other 109 % of control | dose: 150.0 mg/kg/injection, schedule: Q04DX003 (ip), vehicle: other 113 % of control

CC(C)(C)N=C(CCNC1CCCCC1)Nc1c(Cl)cccc1Cl
inactive: [1] 100 % of control | [2] 106 % of control

CN=C(N)NN=C(c1ccc(C)cc1)c1ccc(C)cc1
inactive: dose: 12.5 mg/kg/injection, schedule: Q04DX002 (ip), vehicle: saline with Tween-80 91 % of control | dose: 25.0 mg/kg/injection, schedule: Q04DX002 (ip), vehicle: saline with Tween-80 104 % of control | dose: 100.0 mg/kg/injection, schedule: Q04DX002 (ip), vehicle: saline with Tween-80 96 % of control | dose: 200.0 mg/kg/injection, schedule: Q04DX002 (ip), vehicle: saline with Tween-80 100 % of control

CCOC(=O)C(C)(C)S(=O)(=O)Nc1ccccc1
inactive: dose: 60.0 mg/kg/injection, schedule: Q01DX005 (ip), vehicle: Klucel (hydroxypropylcellulose) (HPC) 105 % of control | dose: 120.0 mg/kg/injection, schedule: Q01DX005 (ip), vehicle: Klucel (hydroxypropylcellulose) (HPC) 102 % of control | dose: 240.0 mg/kg/injection, schedule: Q01DX005 (ip), vehicle: Klucel (hydroxypropylcellulose) (HPC) 102 % of control

CCN(Cc1cccc(S(=O)(=O)O)c1)c1ccc(C(=C2C=CC(=[N+](CC)Cc3cccc(S(=O)(=O)O)c3)C=C2)c2ccc(O)c(S(=O)(=O)O)c2)cc1
inactive: [11] 97 % of control | [12] 99 % of control | [13] 100 % of control

COC(=O)C1c2ccc(OC)c(OC)c2C(=O)N2CCc3cc(OC)c(OC)cc3C12 (configuration not stated)
inactive: dose: 50.0 mg/kg/injection, schedule: Q04DX003 (ip), vehicle: distilled water + Tween-80 93 % of control | dose: 100.0 mg/kg/injection, schedule: Q04DX003 (ip), vehicle: distilled water + Tween-80 96 % of control | dose: 200.0 mg/kg/injection, schedule: Q04DX003 (ip), vehicle: distilled water + Tween-80 87 % of control | dose: 400.0 mg/kg/injection, schedule: Q04DX003 (ip), vehicle: distilled water + Tween-80 110 % of control

CC1=N[N+](C)(C)C([O-])=C1C
inactive: [11] 103 % of control | [12] 97 % of control | [13] 100 % of control
